Results published in PubChem BioAssay AID1996.
In brackets after ≈: the same amount, converted by molar mass.

Conditions: buffer; pH 7.4; 200.0 µM

SMILES	solubility kinetic [µg/mL]
CNC(=O)N1c2ccccc2C=Cc2ccccc21	> 37.5
Cc1ccc(-c2nc(C(Cl)Cl)c3ccccc3n2)cc1	< 0.3
CC(=O)N1CCN(S(=O)(=O)c2ccc3c(c2)CCC(=O)N3)CC1	> 50.6
O=C(Cc1cccc(Cl)c1)Nc1ccc(Br)cc1	2.9 (≈ 8.93 µM)
COc1ccc(NC2=NCCCS2)cc1OC	> 37.8
CN(CCc1ccccc1)Cc1nc(-c2cnccn2)no1	44 (≈ 149 µM)
O=C(NCCc1ccccc1)c1c(O)c2ccccc2[nH]c1=O	< 0.3
CCOC(=O)c1sc(NC(=O)CN2CCN(c3ccc(OC)cc3)CC2)nc1C	15.3 (≈ 36.6 µM)
CC(C)c1ccccc1OCCCCCN1CCOCC1	25.8 (≈ 88.5 µM)
Cc1cccc(NC(=O)C2CCCCN2S(=O)(=O)c2ccccc2)c1C (stereo unspecified)	45.1 (≈ 121 µM)
CSc1ncc(CO)n1Cc1ccccc1	> 35.1
O=C(OCc1ccccc1)c1cnc(Cl)c(Cl)c1	2.1 (≈ 7.44 µM)
O=C(COC(=O)c1cc[n+]([O-])cc1)Nc1ccc(Cl)c(C(F)(F)F)c1	> 56.2
Cc1ccn2c(NC3CCCC3)c(-c3cccs3)nc2c1.Cl	14.7
O=C(O)CC1(CC(=O)NCc2ccc(Cl)cc2)CCCCC1	> 48.6
NC(=S)Cc1ccc(Cl)cc1Cl	30.9 (≈ 140 µM)
O=C(COC(=O)c1ccc(O)cc1)NC1CCCC1	> 39.5
CCC(=O)Nc1ccc(Cl)c(-c2nc3ncccc3o2)c1	> 45.3
COc1ccc(-n2c(O)c(C(C)=NCC3CCCO3)c(=O)[nH]c2=O)cc1 (stereo unspecified)	51.5 (≈ 143 µM)
CC1(C(=O)NCc2ccc(F)cc2)Oc2ccccc2NC1=O (stereo unspecified)	> 47.1
COc1ccc(NC(=O)NC2CCCCCCC2)cc1OC	2.7 (≈ 8.81 µM)

SMILES	solubility kinetic [µg/mL]
Cc1ccc(-c2csc3ncn(CC(N)=O)c(=O)c23)cc1C	> 47
Cc1ccc(S(=O)(=O)N2CCOCC2)cc1C(=O)OCC(=O)NCCc1ccccc1	> 67
COc1cccc(N2CCN(C(=O)c3ccc(-c4ccccc4)cc3)CC2)c1	0.8 (≈ 2.15 µM)
O=C(CSc1ncccn1)Nc1ccc2[nH]c(=O)[nH]c2c1	> 45.2
COc1ccc(C2=CSC3=NCCN23)cc1[N+](=O)[O-]	40.2 (≈ 145 µM)
CN(C)CCOC1c2ccccc2CSc2ccccc21.O=CO (stereo unspecified)	46.7
Cc1cccc(N(Cc2cc3ccccc3[nH]c2=O)C(=O)c2cccs2)c1	< 0.4
O=C(c1cccc(F)c1)N1CCC(c2nc3ccccc3s2)CC1	> 51.1
Cc1ccc(NC(=O)c2ccc([N+](=O)[O-])o2)c(C)c1	> 39
N#Cc1cc(Sc2ccccn2)c([N+](=O)[O-])cc1C#N	> 42.3
Cc1ccc(SCC(=O)NCCc2ccccc2)cc1	20.7 (≈ 72.5 µM)
Cc1ccc(O)c(CNc2cnc3ccccc3c2)c1	18.1 (≈ 68.5 µM)
CCOC(=O)c1cc(C)nc(SC)c1C#N	16.9 (≈ 71.5 µM)
O=C(N1CCCCC1)C1(c2ccccc2)CCCCC1	3.6 (≈ 13.3 µM)
S=C(NCCc1ccccc1)NCCc1cnc[nH]1	> 41.2
NC(N)=O	> 9
Br.N=C1CCCN1CC(=O)c1cccs1	39
O=C(c1[nH]ncc1[N+](=O)[O-])N1CCOCC1	> 33.9
NS(=O)(=O)c1cccc(NC(=O)COC(=O)c2ccccc2SCC(=O)N2CCCC2)c1	> 71.6
CC(C(=O)OCC(=O)Nc1ccc(S(N)(=O)=O)cc1)N1C(=O)c2ccccc2C1=O (stereo unspecified)	> 64.7
Cc1ccc(NC(=O)C(c2ccccc2)N(C)C)cc1Cl (stereo unspecified)	28.3 (≈ 93.5 µM)

SMILES	solubility kinetic [µg/mL]
Cc1nc(SCc2ccccc2)c2ccsc2n1	< 0.3
CCOC(=O)C1CCCN(C(=O)Nc2c(-c3ccccc3)noc2C)C1 (stereo unspecified)	52.4 (≈ 147 µM)
CC(=O)c1ccc(CC2SC(N)=NC2=O)cc1 (stereo unspecified)	> 37.2
O=C(COC(=O)Cc1ccc(Cl)cc1)NCc1ccco1	> 46.2
COc1ccccc1NC(=O)NC1CCCCCCC1	2.7 (≈ 9.77 µM)
O=C(CN1C(=O)c2ccc([N+](=O)[O-])cc2C1=O)NCc1ccc(C(=O)O)cc1	> 57.5
COc1ccccc1CNC(=O)CN1C(=O)NC2(CCOc3ccccc32)C1=O (stereo unspecified)	7.9 (≈ 20 µM)
N#CC1(c2ccccc2)CCC(=O)N1c1ccccc1 (stereo unspecified)	> 39.3
COc1ccccc1N1CCN(C(=O)c2cc(S(=O)(=O)N3CCCCC3)ccc2C)CC1.Cl	68.1
N#CC(=NCc1cccnc1)C1=C(O)c2ccccc2C1=O	6.4 (≈ 22.1 µM)
CC(=O)Nc1nnc(SCC(=O)NC2CCCC2)s1	> 45.1
O=C(CO/N=C/c1ccc(OC(F)F)cc1)NC1CCCCC1	6.7 (≈ 20.5 µM)
CC(OC(=O)/C=C/c1cccc(F)c1)C(=O)NC1CCCCC1C (stereo unspecified)	1.9 (≈ 5.7 µM)
OCCNC(=S)Nc1ccc2c(c1)OCCO2	37 (≈ 145 µM)
COc1ccc(NC(=O)NC2CCCCCCC2)c(OC)c1	5.5 (≈ 18 µM)
Cc1ccc(S(=O)(=O)N2CCC(N3CCC(C)CC3)CC2)cc1	> 50.5
CC(=O)Nc1cccc(C(=O)OCN2C(=O)c3ccccc3C2=O)c1	9.5 (≈ 28.1 µM)
Cc1ccc(N2CN(CCC3=CCCCC3)CNC2=S)cc1	5.1 (≈ 16.2 µM)
CNc1ccc(Br)cc1C(O)c1ccccc1 (stereo unspecified)	34.7 (≈ 119 µM)
